The results in this text go back to PubChem BioAssay (NCI).

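Dose response: 5 concentrations. Exposure: 48 h. Format: 96-well plates. Endpoint: linear interpolation; highest concentration if not reached. The concentration for 50% growth inhibition is given as GI50. The concentration for full growth arrest is given as TGI.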

Common to all, as to assay: NCI anticancer screen, dose series, 48 h
The subject of experiment [1] is MDA-MB-435.
Experiment [2] relates to NCI-H522 lung.
The subject of experiment [3] is HCC-2998 colon.
The test system of experiment [4] is COLO 205 colon.
Experiment [5] deals with NCI-H226 lung.
The test system of experiment [6] is SK-MEL-5 melanoma.
The test system of experiment [7] is T-47D breast.
For experiment [8], the system named is HL-60(TB) leukemia.
Experiment [9] has as its system K-562 leukemia.
Experiment [10] has as its system NCI-H460 lung.

As for `Nc1c(C(=O)c2cccc(C#CCN3CCCCC3)c2)cnn1-c1ccc(F)cc1`, the GI50 is 15.3 µM in experiment [1]; > 18.9 µM in experiment [2]; > 25 µM in experiment [3]; 24.9 µM in experiment [4]; > 23.4 µM in experiment [5]; 9.59 µM in [6]. The GI50 in experiment [7] is 11.3 µM; in [8] it was 15.9 µM; in [9], 13.1 µM; in experiment [10], > 25 µM. Also, the TGI in [1], in [2], in experiment [3], in experiment [4], in experiment [5] and in experiment [6] was > 25 µM throughout. The TGI in [7], in [8], in [9] and in experiment [10] was > 25 µM in each case.

In the case of `C/C(=C(/c1ccccc1)c1ccc(OCC(O)CNCCN2CCOCC2)cc1)c1ccccc1` (configuration not stated), the GI50 is 1.67 µM in [1]; 2.22 µM in [2]; 1.93 µM in experiment [3]; 1.95 µM in experiment [4]; 12.1 µM in experiment [5]; 1.77 µM in experiment [6]. In addition, the GI50 in experiment [7] is 3.49 µM; in experiment [8], 1.95 µM; in experiment [9], 1.75 µM; in [10], 1.8 µM. The TGI in experiment [1] was determined as 3.09 µM; in experiment [2] it was 6.18 µM; in experiment [3], 3.43 µM; in experiment [4], 4.17 µM; in experiment [5], 29.3 µM; in experiment [6], 3.19 µM. Moreover, the TGI was 11.3 µM in [7], 4.04 µM in experiment [8], 4.26 µM in experiment [9] and 3.4 µM in [10].

Turning to `COc1ccc(-c2cnnn2-c2nonc2-n2cccc2)cc1OC`, the GI50 in experiment [1] was 0.716 µM; in experiment [2], 2.32 µM; in [3], 5.53 µM; in experiment [4], 3.64 µM; in experiment [5], 16.2 µM; in [6], 4.6 µM. Also, the GI50 in experiment [7] is 3.79 µM; in experiment [8], 3.09 µM; in experiment [9], 1.37 µM; in [10], 3.75 µM. In addition, the TGI in experiment [1] was 3.01 µM; in experiment [2] it was 11.3 µM; in experiment [3] it was 37.7 µM; in experiment [4] it was 14.8 µM; in [5], > 100 µM; in experiment [6], 21.1 µM. Moreover, the TGI in [7] is > 100 µM; in [8], 15.4 µM; in experiment [9], > 100 µM; in [10] it was > 100 µM.

For the molecule `O=C(CC1(O)C(=O)Nc2ccc(F)cc21)c1ccc(C(=O)NCC2CCC3(CC2)OOC2(CCCCC2)OO3)cc1` (configuration not stated), the GI50 is 3.04 µM in experiment [1]; 1.21 µM in [2]; 14.6 µM in experiment [3]; 5.37 µM in experiment [4]; 10.3 µM in experiment [5]; 3.69 µM in experiment [6]. In addition, the GI50 was 5 µM in experiment [7], 1.43 µM in experiment [8], 3.49 µM in experiment [9] and 2.52 µM in experiment [10]. In addition, the TGI was 10.8 µM in experiment [1]; 2.71 µM in experiment [2]; 30 µM in experiment [3]; 22.9 µM in [4]; 32.2 µM in experiment [5]; 14.4 µM in [6]. For the same molecule, the TGI in [7] was determined as 44.2 µM; in experiment [8], 3.46 µM; in [9], 21.9 µM; in experiment [10] it was 6.47 µM.

For the molecule `C=C1C(=O)O[C@H]2[C@H]1CC/C(Cn1cc(-c3ccc(N)cc3)nn1)=C\CC[C@@]1(C)O[C@@H]21`, the GI50 in experiment [1] was 3.01 µM; in experiment [2] it was 1.37 µM; in experiment [3], 3.49 µM; in experiment [4] it was 1.79 µM; in [5] it was 3.34 µM; in [6], 3.47 µM. Besides, the GI50 in [7] was 2.23 µM; in [8] it was 2.23 µM; in [9], 2.99 µM; in experiment [10], 10.4 µM. In addition, the TGI in experiment [1] was 11.5 µM; in experiment [2], 3.07 µM; in experiment [3], 12 µM; in [4], 4.05 µM; in [5], 13.2 µM; in experiment [6], 12.7 µM. Further, the TGI in experiment [7] is 5.77 µM; in experiment [8], 6.43 µM; in experiment [9] it was > 100 µM; in [10] it was 29.7 µM.

Regarding `COc1cccc(CNc2ncnc3c2ncn3C2OC(CO)C(O)C2O)c1O` (configuration not stated), the GI50 in experiment [1] was 0.111 µM; in [2], 0.0848 µM; in experiment [3], 0.391 µM; in [4], 0.702 µM; in experiment [6], 1.43 µM; in experiment [7], 0.0549 µM. The GI50 in experiment [8] was 0.0303 µM; in experiment [9], 0.311 µM; in [10] it was 0.931 µM. The TGI was 2.78 µM in experiment [1]; > 38.2 µM in experiment [3]; 31.1 µM in experiment [4]; > 100 µM in experiment [5]; > 100 µM in experiment [6]; 0.224 µM in [8]. Moreover, the TGI in experiment [9] and in experiment [10] was > 100 µM in each case.

`COc1ccc(C2=NC(=O)NC2c2ccc(OC)cc2)cc1` (configuration not stated): the GI50 in experiment [1] was 1.73 µM; in experiment [2], 5.02 µM; in [3] it was 13 µM; in experiment [4], 6.47 µM; in [5] it was 14.8 µM; in experiment [6] it was 3.29 µM. Moreover, the GI50 is 6.9 µM in experiment [7], 2.2 µM in [8], 2.8 µM in [9] and 6.73 µM in experiment [10]. Moreover, the TGI in [1] was 4.56 µM; in [2], 60.9 µM; in experiment [3], 33.6 µM; in experiment [4] it was 21.3 µM; in [5], > 100 µM; in [6], 14.2 µM. For the same molecule, the TGI was > 100 µM in experiment [7], 15.6 µM in experiment [8], 20.8 µM in [9] and 51.8 µM in experiment [10].
